Source: US20130261136A1, “COFFEE EXTRACTS AS INGREDIENTS OF FOODS, DRUGS, COSMETICS, DIETARY SUPPLEMENTS, AND BIOLOGICS” (priority 2010, published 2013)

Legend:
[1] = system: human skeletal muscle cells; experiment: Glucose uptake (3H-2-deoxyglucose) in skeletal muscle cells; type: cell-based; details: 100 nM insulin (positive control)
Procedure: (§1) Glucose uptake. […] Briefly, primary human subcutaneous adipocytes or primary human myoblasts were differentiated in 96-well microplates. […] All samples, including the positive and negative controls, were tested in triplicate. After a 2-h incubation at 37° C. and 5% CO2, the cells were washed with PBS and lysed. The cell lysate was mixed with scintillation fluid and radioactivity of each well was measured as counts per minute (CPM).

[2] = system: human adipocytes; experiment: Glucose uptake (3H-2-deoxyglucose) in adipocytes; type: cell-based; details: 100 nM insulin (positive control)
Procedure: as §1

[3] = ORAC assay adapted for the linoleate microemulsion system (relative ORAC, synergy)
Procedure: Synergistic effects of bioactive compounds combined with alpha-tocopherol. […] An OBS microplate was prepared with duplicate wells of Trolox solution standards (20 μL; 500, 250, 125, 62.5, or 31.25 μM) and triplicate wells of samples diluted in phosphate buffer (20 μL). The perimeter wells were not used for kinetic studies to avoid potential edge effects. The oxidation substrate, methyl linoleate microemulsion (200 μL), was then added. […] A control well containing 200 μL of microemulsion and 40 μL of phosphate buffer was used to normalize the fluorescence reading. The reaction kinetics were monitored at 37° C. for 2 h, with readings every 2 min, by a Synergy HT microplate fluorescent reader (Biotek Instruments Inc.). The microplate reader was fitted with an excitation filter at 485 nm, an emission filter of 590 nm, and an oxygen sensor biosystem, and the plate was shaken for 20 s at low intensity before each reading to ensure sufficient mixing. After normalization, the fluorescence data were converted to the oxygen concentration at each point of the reaction. The ORAC values of samples were determined as previously described ([…]. et al., Journal of Agricultural and Food Chemistry 2009, 57, 3409-3414).

Compound	Increase in glucose uptake [1]	Increase in glucose uptake [2]	Antioxidant effect in combination with α-tocopherol [3]
insulin	2.06 fold	1.6 fold	
O=C(/C=C/c1ccc(O)c(O)c1)O[C@@H]1C[C@](O)(C(=O)O)C[C@@H](O)[C@H]1O [chlorogenic acid]			synergistic
Oc1cc(O)c2c(c1)O[C@H](c1ccc(O)c(O)c1)[C@@H](O)C2 [catechin, Catechin]			synergistic
O=C1O[C@H]([C@@H](O)CO)C(O)=C1O [ascorbic acid]			additive
